{"source": "patent US11596716B2", "about": "“Compounds and matrices for use in bone growth and repair” (Human BioMolecular Research Institute, priority 2013, dated 2023)", "tested_on": "C2C12 cells", "assay": "Alkaline Phosphatase (ALP) functional activity assay in C2C12 cells", "assay_type": "cell-based, Mouse", "settings": "normalized to DMSO treatment; for activation at 0.5 µM: Mus musculus, C2C12, 144 h", "description": "Alkaline Phosphatase (ALP) Functional Activity Assay: C2C12 cells were plated into 12-well plates with 7,000 cells/well in 1 mL growth media. […] 1, 2, 3, or 4 in 0.1% DMSO was added (500 nM). Half the media was exchanged with fresh media containing compound every 48 hrs. After 6 days, media was removed, ALP Lysis Buffer (10 mM Tris-HCl pH 8.0, 1 mM MgCl2, and 1% Triton X100) added, and cell lysate obtained (10 min incubation at RT) by centrifugation (5 min at 3500× g at 4° C.). Para-nitrophenol phosphate (pNPP) (2 mg/mL) was incubated with 50 μl cell lysate (10 mins, 37° C.). After addition of […] 0.02 N NaOH, absorbance OD405 was measured. Protein concentration was determined by Bradford protein assay. Results of ALP activity were plotted as nM pNP hydrolyzed/mg total protein. After normalizing control samples (i.e., DMSO-treated samples) to one-fold, the fold-changes were plotted to indicate the relative ALP activity. […] This protocol was applied to hMSC and E15 cells as well.", "key": {"[1]": {"settings": "compounds of Formula II or IV, absence of matrix"}, "[2]": {"settings": "compounds of Formula II or IV, presence of calcium phosphate matrix"}, "[3]": {"settings": "compounds of Formula VI, absence of matrix"}, "[4]": {"settings": "compounds of Formula VI, presence of calcium phosphate matrix"}}}
{"molecule": "CC(=O)N1c2ccc(C)cc2[C@@H](N(C(C)=O)c2ccc(C)cc2)C[C@@H]1C", "note": "(relative stereo) [Compound 27, trans-1-acetyl-2,6-dimethyl-N-(p-methylphenyl)-N-acetyl-1,2,3,4-tetrahydroquinolin-4-amine]", "values": [{"measurement": "activation at 0.5 µM", "setting": "[1]", "result": "5 to 50", "unit": "%"}, {"measurement": "activation at 0.5 µM", "setting": "[2]", "result": "5 to 50", "unit": "%"}]}
{"molecule": "Cc1ccc(N[C@@H]2C[C@H](C)N(C(=O)c3ccccc3)c3ccc(C)cc32)cc1", "note": "(relative stereo) [Compound 18, cis-1-benzoyl-2,6-dimethyl-N-(p-methylphenyl)-1,2,3,4-tetrahydroquinolin-4-amine]", "values": [{"measurement": "activation at 0.5 µM", "setting": "[1]", "result": "> 100", "unit": "%"}, {"measurement": "activation at 0.5 µM", "setting": "[2]", "result": "< 5", "unit": "%"}]}
{"molecule": "C[C@H]1C[C@H](N(C(=O)c2ccccc2)c2ccc(F)cc2)c2cc(F)ccc2N1C(=O)c1ccccc1", "note": "(relative stereo) [Compound 29, trans-1-benzoyl-2-methyl-6-fluoro-N-(p-fluorophenyl)-N-benzoyl-1,2,3,4-tetrahydroquinolin-4-amine]", "values": [{"measurement": "activation at 0.5 µM", "setting": "[1]", "result": "> 100", "unit": "%"}, {"measurement": "activation at 0.5 µM", "setting": "[2]", "result": "< 5", "unit": "%"}]}
{"molecule": "(2S,2′S)4-(3-(3-(4-(2-amino-3-methylbutanoyloxy)-3-methoxybenzylidene)-2-oxocyclohexyl)-3-oxoprop-1-enyl)-2-methoxyphenyl bis(2-(tert-butoxycarbonylamino)-3-methylbutanoate) [Compound 78]", "values": [{"measurement": "ALP activity −matrix", "setting": "[3]", "result": "− (<5%)"}, {"measurement": "ALP activity +matrix", "setting": "[4]", "result": "+ (5-50%)"}]}
{"molecule": "O=C(C=CC1CCCCC1)C1CCCC(=CC2CCCCC2)C1=O", "note": "(stereo not shown) [Compound 64, 2-(3-Cyclohexylacryloyl)-6-(cyclohexylmethylene)cyclohexanone]", "values": [{"measurement": "activation at 0.5 µM", "setting": "[3]", "result": "5 to 50", "unit": "%"}, {"measurement": "activation at 0.5 µM", "setting": "[4]", "result": "5 to 50", "unit": "%"}]}
{"molecule": "C[C@H]1C[C@H](Nc2ccc(F)cc2)c2cc(F)ccc2N1C(=O)c1ccccc1", "note": "(relative stereo) [Compound 24, trans-1-benzoyl-2-methyl-6-fluoro-N-(p-fluorophenyl)-1,2,3,4-tetrahydroquinolin-4-amine]", "values": [{"measurement": "activation at 0.5 µM", "setting": "[1]", "result": "50 to 100", "unit": "%"}, {"measurement": "activation at 0.5 µM", "setting": "[2]", "result": "< 5", "unit": "%"}]}
{"molecule": "C[C@H]1C[C@@H](Nc2ccc(F)cc2)c2cc(F)ccc2N1C(=O)c1ccccc1", "note": "(relative stereo) [Compound 23, cis-1-benzoyl-2-methyl-6-fluoro-N-(p-fluorophenyl)-1,2,3,4-tetrahydroquinolin-4-amine]", "values": [{"measurement": "activation at 0.5 µM", "setting": "[1]", "result": "50 to 100", "unit": "%"}, {"measurement": "activation at 0.5 µM", "setting": "[2]", "result": "5 to 50", "unit": "%"}]}
{"molecule": "O=C(C=C(O)CCc1ccc(O)cc1)CCc1ccc(O)cc1", "note": "[Compound 63, 5-Hydroxy-1,7-bis(4-hydroxyphenyl)hept-4-en-3-one]", "values": [{"measurement": "activation at 0.5 µM", "setting": "[3]", "result": "5 to 50", "unit": "%"}, {"measurement": "activation at 0.5 µM", "setting": "[4]", "result": "50 to 100", "unit": "%"}]}
{"molecule": "COc1ccc(F)cc1C=CC(O)=C1CCCC(=Cc2cc(F)ccc2OC)C1=O", "note": "[Compound 56, 2-(5-Fluoro-2-methoxybenzylidene)-6-(3-(5-fluoro-2-methoxyphenyl)-1-hydroxyallylidene) cyclohexanone]", "values": [{"measurement": "activation at 0.5 µM", "setting": "[3]", "result": "< 5", "unit": "%"}, {"measurement": "activation at 0.5 µM", "setting": "[4]", "result": "> 100", "unit": "%"}]}
{"molecule": "O=C(C=Cc1ccc(O)cc1)C1CCCC(=Cc2ccc(O)cc2)C1=O", "note": "(stereo not shown) [Compound 55, 2-(4-Hydroxybenzylidene)-6-(3-(4-hydroxyphenyl)acryloyl)-cyclohexanone]", "values": [{"measurement": "activation at 0.5 µM", "setting": "[3]", "result": "5 to 50", "unit": "%"}, {"measurement": "activation at 0.5 µM", "setting": "[4]", "result": "5 to 50", "unit": "%"}]}
{"molecule": "CN(C)c1ccc(C=CC(=O)C2CCCC(=Cc3ccc(N(C)C)cc3)C2=O)cc1", "note": "(stereo not shown) [Compound 57, 2-(4-N,N-dimethylaminobenzylidene)-6-(3-(4-N,N-dimethylaminophenyl)acryloyl)cyclohexanone]", "values": [{"measurement": "ALP activity −matrix", "setting": "[3]", "result": "− (<5%)"}, {"measurement": "ALP activity +matrix", "setting": "[4]", "result": "++ (50-100%)"}]}
{"molecule": "CC(=O)N1c2ccc(C)cc2[C@@H](Nc2ccc(C)cc2)C[C@@H]1C", "note": "(relative stereo) [Compound 13, trans-1-acetyl-2,6-dimethyl-N-(p-methylphenyl)-1,2,3,4-tetrahydroquinolin-4-amine]", "values": [{"measurement": "activation at 0.5 µM", "setting": "[1]", "result": "> 100", "unit": "%"}, {"measurement": "activation at 0.5 µM", "setting": "[2]", "result": "< 5", "unit": "%"}]}
{"molecule": "C[C@H]1C[C@H](Nc2ccccc2)c2ccccc2N1", "note": "(relative stereo) [Compound 8, trans-2-methyl-N-phenyl-1,2,3,4-tetrahydroquinolin-4-amine]", "values": [{"measurement": "activation at 0.5 µM", "setting": "[1]", "result": "5 to 50", "unit": "%"}, {"measurement": "activation at 0.5 µM", "setting": "[2]", "result": "5 to 50", "unit": "%"}]}
{"molecule": "CC(C)[C@H](NC(=O)OC(C)(C)C)C(=O)Oc1ccc(C=CC(O)=CC(=O)C=Cc2ccc(O)cc2)cc1", "note": "[Compound 83, (S)-4-(3-hydroxy-7-(4-hydroxyphenyl)-5-oxohepta-1,3,6-trienyl)phenyl 2-N-Boc-amino-3-methylbutanoate]", "values": [{"measurement": "ALP activity −matrix", "setting": "[3]", "result": "+ (5-50%)"}, {"measurement": "ALP activity +matrix", "setting": "[4]", "result": "− (<5%)"}]}
{"molecule": "COc1ccc(C(=O)N2c3ccc(F)cc3[C@@H](N(C(=O)c3ccc(OC)cc3)c3ccc(F)cc3)C[C@@H]2C)cc1", "note": "(relative stereo) [Compound 30, trans-1-(p-methoxybenzoyl)-2-methyl-6-fluoro-N-(p-fluorophenyl)-N-(p-methoxybenzoyl)-1,2,3,4-tetrahydroquinolin-4-amine]", "values": [{"measurement": "activation at 0.5 µM", "setting": "[1]", "result": "< 5", "unit": "%"}, {"measurement": "activation at 0.5 µM", "setting": "[2]", "result": "5 to 50", "unit": "%"}]}
{"molecule": "O=C(CCc1ccc(O)cc1)C1CCCC(Cc2ccc(O)cc2)C1=O", "note": "(stereo not shown) [Compound 62, 2-(4-Hydroxybenzyl)-6-(3-(4-hydroxyphenyl)propanoyl)cyclohexanone]", "values": [{"measurement": "activation at 0.5 µM", "setting": "[3]", "result": "< 5", "unit": "%"}, {"measurement": "activation at 0.5 µM", "setting": "[4]", "result": "5 to 50", "unit": "%"}]}
{"molecule": "CC(=O)N1c2ccc(F)cc2[C@@H](Nc2ccc(F)cc2)C[C@@H]1C", "note": "(relative stereo) [Compound 22, trans-1-acetyl-2-methyl-6-fluoro-N-(p-fluorophenyl)-1,2,3,4-tetrahydroquinolin-4-amine]", "values": [{"measurement": "activation at 0.5 µM", "setting": "[1]", "result": "5 to 50", "unit": "%"}, {"measurement": "activation at 0.5 µM", "setting": "[2]", "result": "< 5", "unit": "%"}]}
{"molecule": "COc1cc(N(C)C)ccc1C=CC(=O)C=C(O)C=Cc1ccc(N(C)C)cc1OC", "note": "[Compound 39, 1,7-Bis(4-dimethylamino-2-methoxyphenyl). 5-hydroxy-hepta-1,4,6-trien-3-one]", "values": [{"measurement": "ALP activity −matrix", "setting": "[3]", "result": "+++ (>100%)"}, {"measurement": "ALP activity +matrix", "setting": "[4]", "result": "− (<5%)"}]}
{"molecule": "COc1ccc(C(=O)N2c3ccc(F)cc3[C@H](Nc3ccc(F)cc3)C[C@@H]2C)cc1", "note": "(relative stereo) [Compound 25, cis-1-(p-methoxybenzoyl)-2-methyl-6-fluoro-N-(p-fluorophenyl)-1,2,3,4-tetrahydroquinolin-4-amine]", "values": [{"measurement": "activation at 0.5 µM", "setting": "[1]", "result": "5 to 50", "unit": "%"}, {"measurement": "activation at 0.5 µM", "setting": "[2]", "result": "5 to 50", "unit": "%"}]}
{"molecule": "COc1ccc(C(=O)N2c3ccc(F)cc3[C@@H](Nc3ccc(F)cc3)C[C@@H]2C)cc1", "note": "(relative stereo) [Compound 26, trans-1-(p-methoxybenzoyl)-2-methyl-6-fluoro-N-(p-fluorophenyl)-1,2,3,4-tetrahydroquinolin-4-amine]", "values": [{"measurement": "activation at 0.5 µM", "setting": "[1]", "result": "< 5", "unit": "%"}, {"measurement": "activation at 0.5 µM", "setting": "[2]", "result": "50 to 100", "unit": "%"}]}
{"molecule": "COc1cc(C=CC(=O)C2CCCC(=Cc3ccc(O)c(OC)c3)C2=O)ccc1O", "note": "(stereo not shown) [Compound 58, 2-(4-Hydroxy-3-methoxybenzylidene)-6-(3-(4-hydroxy-3-methoxyphenyl)acryloyl)cyclohexanone]", "values": [{"measurement": "activation at 0.5 µM", "setting": "[3]", "result": "5 to 50", "unit": "%"}, {"measurement": "activation at 0.5 µM", "setting": "[4]", "result": "5 to 50", "unit": "%"}]}
{"molecule": "NCCCCC(N)C(=O)Oc1ccc(C=CC(=O)CC(=O)C=Cc2ccc(OC(=O)C(N)CCCCN)cc2)cc1", "note": "[Compound 69, (2S,2′S)—O,O′-(3,5-Dioxohepta-1,6-diene-1,7-diyl)bis(4,1-phenylene) bis(2,6-bis-amino)hexanoate]", "values": [{"measurement": "ALP activity −matrix", "setting": "[3]", "result": "− (<5%)"}, {"measurement": "ALP activity +matrix", "setting": "[4]", "result": "+ (5-50%)"}]}
{"molecule": "COc1cc(C=CC(=O)C2CCCC(=Cc3ccc(OC(=O)C(N)CCCCN)c(OC)c3)C2=O)ccc1OC(=O)C(N)CCCCN", "note": "(stereo not shown) [Compound 80, 4-(3-(3-(4-(2,6-diaminohexanoyloxy)-3-methoxybenzylidene)-2-oxocyclohexyl)-3-oxoprop-1-enyl)-2-methoxyphenyl bis(2,6-diaminohexanoate)]", "values": [{"measurement": "ALP activity −matrix", "setting": "[3]", "result": "− (<5%)"}, {"measurement": "ALP activity +matrix", "setting": "[4]", "result": "+ (5-50%)"}]}
